Results from US20040157867A1, “Pyrimidine phosphorylase as a target for imaging and therapy” (priority 2004, published 2004).
Like-named read-outs stand apart in the source and are kept apart here.

Tests used:
[1] = cited from earlier work
[2] = molecular target: T1, TPase (Homo sapiens, UniProt P19971); experiment: TPase inhibition in intact human hepatocytes ([3H]-Ura formation from [3H]-dUrd); assay type: cell-based; parameters: Cryopreserved human hepatocytes were procured from In Vitro Technologies, Inc; host or cells: cryopreserved human hepatocytes; settings: [3H]-dUrd 0.2 μM, one hour
T1 sequence (P19971 11-482): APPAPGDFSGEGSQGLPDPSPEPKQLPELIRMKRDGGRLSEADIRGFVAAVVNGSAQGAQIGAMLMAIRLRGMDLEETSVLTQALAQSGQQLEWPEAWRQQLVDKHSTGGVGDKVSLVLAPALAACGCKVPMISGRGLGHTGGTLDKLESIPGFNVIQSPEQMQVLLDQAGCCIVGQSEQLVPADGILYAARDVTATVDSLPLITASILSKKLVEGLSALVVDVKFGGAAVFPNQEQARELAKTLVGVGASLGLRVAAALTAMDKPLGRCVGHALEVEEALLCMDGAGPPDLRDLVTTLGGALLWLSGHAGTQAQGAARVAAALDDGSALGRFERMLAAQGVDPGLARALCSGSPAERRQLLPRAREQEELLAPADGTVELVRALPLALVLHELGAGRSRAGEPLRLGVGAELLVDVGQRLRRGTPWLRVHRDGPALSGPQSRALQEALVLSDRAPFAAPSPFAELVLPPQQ
Protocol: Cryopreserved human hepatocytes were procured from In Vitro Technologies, Inc. (Catonsville, Md.) and processed according to the supplier's instructions. TPase activity was monitored for one hour by measuring formation of [^3H]-Ura from [^3H]-dUrd, 0.2 μM. Co-incubation of tritiated dUrd with 100 μM BrUra inhibited TPase by 48%, and 500 μM of BrUra inhibited TPase by 85%.

[3] = tested on: Raji; experiment: Growth inhibition of Raji tumor cells by BrUra; assay type: cell-based, human; settings: 72 hr
Protocol: (§1) The five human-derived tumor cell lines shown below were incubated with BrUra at concentrations from 0.5 to 4.5 mM for 72 hours. (Cell lines are available at the ATCC, Manassas, Va.) Separate incubations were conducted in the presence or absence of 50 μM dUrd. Growth inhibition was determined as a percentage of control values for cells incubated without BrUra or dUrd. Consistent with the experiments described in Example 8, co-incubation with dUrd increased cytotoxicity of BrUra in all groups. As expected from their high level of TPase expression, U937 were the only cells with notable toxicity at 0.5 mM, and also the greatest toxicity at 1.5 and 4.5 mM. CEM, MOLT4, and K562 were substantially less affected by incubation with BrUra, consistent with a low intracellular activation rate because of low TPase expression.
(§2) % Growth Inhibition, Based Upon Control Doubling Time=24 Hr. BrUra Concentrations Ranged from 0.5 to 4.5 mM. Incubations were Conducted for 72 Hr in the Presence or Absence of 50 μM ddUrd.

[4] = molecular target: T1, TPase; experiment: TPase inhibition in tumor cells co-incubated with human liver cytosol ([3H]-dThd incorporation into DNA); assay type: cell-based; settings: BrUra 500 μM, U-937 or MOLT-4 cells with human liver cytosol (S100), 5-35% without BrUra
Protocol: [^3H]-dThd (0.02 μM) or [^3H]-dUrd (0.1 μM) was incubated with either U-937 or MOLT-4 tumor cells, and incorporation of [[…] into DNA was measured after 3 hours. Cytosol (S100) was prepared from human liver by differential centrifugation. This cytosol, which contains TPase, was co-incubated with U-937 or MOLT4 tumor cells to simulate the degradation of pyrimidine nucleosides in the body. Incorporation of [^3H]-dThd into DNA was decreased to 5-35% of baseline levels. When BrUra (500 μM) was also added to the incubation mixture, TPase inhibition was observed as increased incorporation of [^3H]-dThd in DNA, back to 39-89% of baseline levels.

[5] = tested on: CEM; experiment: Growth inhibition of CEM tumor cells by BrUra; assay type: cell-based, human; settings: 72 hr
Protocol: as §1, §2

[6] = tested on: U937; experiment: Growth inhibition of U937 tumor cells by BrUra; assay type: cell-based, human; settings: 72 hr
Protocol: as §1, §2

[7] = tested on: MOLT4; experiment: Growth inhibition of MOLT4 tumor cells by BrUra; assay type: cell-based, human; settings: 72 hr
Protocol: as §1, §2

[8] = tested on: K562; experiment: Growth inhibition of K562 tumor cells by BrUra; assay type: cell-based, human; settings: 72 hr
Protocol: as §1, §2

[9] = tested on: Dunning rat prostatic tumors; experiment: 5-X-Ura incorporation into tumor DNA in vivo; settings: BrUra intravenously, tumors harvested 105 minutes after injection
Protocol: Dunning rat prostatic tumors were implanted (250,000 cells) subcutaneously in 3 rats. Two weeks post-implantation, the tumors had reached 7-20 g in size and the rats weighed about 250 g. At 2 weeks post-implantation, TPase was measured. BrUra was prepared in an aqueous solution, adjusted to pH 9 (the same formulation used clinically for its analog, FUra), and injected intravenously via a tail vein. The rats were sacrificed 105 minutes after the injection, and the tumors were harvested. DNA from the tumor was isolated, digested, and the nucleosides analyzed by HPLC (Klecker, 1994). BrdUrd was found in the DNA of the tumors, replacing 0.15% of the dThd bases.

[10] = tested on: U-937 cells; experiment: Enhancement of BrUra trapping into DNA by dR-1-P prodrugs; assay type: cell-based, human; settings: 24 hours, 20 μM BrUra and 20 μM deoxyribonucleoside
Protocol: The effect of dR-1-P prodrugs was examined in U-937 cells. Cells were incubated for 24 hours with 20 μM BrUra and 20 μM of six different deoxyribonucleosides. The use of prodrugs for dR-1-P is described as a way of driving the reaction catalyzed by TPase in the direction of thymidine production. As illustrated in the bar chart, in FIG. 3, the maximum enhancement of BrUra trapping in DNA was 24-fold, for dUrd. An increase of 6-fold was found for dIno.

[11] = tested on: U-937 cells implanted subcutaneously in nude mice; experiment: Incorporation of [3H]-BrUra into tumor DNA in vivo, modulation with eniluracil; settings: eniluracil 2 mg/kg i.p. thirty minutes prior to i.v. [3H]-BrUra, 24 hours
Protocol: U-937 cells (ATCC; Manassas, Va.) were implanted subcutaneously in nude mice. When tumors grew to about 0.5 gram, [^3H]-BrUra was injected i.v. One set of mice received eniluracil, 2 mg/kg, injected i.p. thirty minutes prior to i.v. [3H]-BrUra, and the other set received no treatment prior to [^3H]-BrUra i.v. Both sets of mice were killed 24 hours later, and tumors and blood removed. DNA from tumors was extracted and analyzed using our established techniques (Klecker et al., 1994). [^3H]-BrdUrd was found in DNA in tumors by radiochromatography, indicating conversion of [^3H]-BrUra in vivo, similar to our results for cell culture.

O=c1[nH]cc(F)c(=O)[nH]1 [5-FUra, 5-fluorouracil]
increase in 5-FUra exposure ([1]; presence versus absence of eniluracil): 50- to 100 fold | Plasma clearance of 5-FUra ([1]; with eniluracil): 0.1 L/min | recovered unchanged in the urine ([1]; with eniluracil): 77% | tolerated dose upon continuous dosing ([1]; with eniluracil): 2 mg/day per square meter of body surface | Plasma clearance of 5-FUra ([1]; without eniluracil): 5.0 L/min | recovered unchanged in the urine ([1]; without eniluracil): less than 10%

O=c1[nH]cc(Br)c(=O)[nH]1 [BrUra, bromouracil]
TPase inhibition ([2]; 100 μM BrUra): 48% | TPase inhibition ([2]; 500 μM BrUra): 85% | % Growth Inhibition ([3]; BrUra 0.5 mM, with 50 μM dUrd): 9% | % Growth Inhibition ([3]; BrUra 0.5 mM, without dUrd): 2% | % Growth Inhibition ([3]; BrUra 1.5 mM, with 50 μM dUrd): 24% | % Growth Inhibition ([3]; BrUra 1.5 mM, without dUrd): 27% | % Growth Inhibition ([3]; BrUra 4.5 mM, with 50 μM dUrd): 67% | % Growth Inhibition ([3]; BrUra 4.5 mM, without dUrd): 65% | incorporation of [3H]-dThd in DNA, of baseline levels [4]: 39-89% | % Growth Inhibition ([5]; BrUra 0.5 mM, with 50 μM dUrd): 13% | % Growth Inhibition ([5]; BrUra 0.5 mM, without dUrd): 6% | % Growth Inhibition ([5]; BrUra 1.5 mM, with 50 μM dUrd): 65% | % Growth Inhibition ([5]; BrUra 1.5 mM, without dUrd): 23% | % Growth Inhibition ([5]; BrUra 4.5 mM, with 50 μM dUrd): 95% | % Growth Inhibition ([5]; BrUra 4.5 mM, without dUrd): 89% | % Growth Inhibition ([6]; U937, BrUra 0.5 mM, with 50 μM dUrd): 28% | % Growth Inhibition ([6]; U937, BrUra 0.5 mM, without dUrd): 16% | % Growth Inhibition ([6]; U937, BrUra 1.5 mM, with 50 μM dUrd): 77% | % Growth Inhibition ([6]; U937, BrUra 1.5 mM, without dUrd): 47% | % Growth Inhibition ([6]; U937, BrUra 4.5 mM, with 50 μM dUrd): 100% | % Growth Inhibition ([6]; U937, BrUra 4.5 mM, without dUrd): 100% | % Growth Inhibition ([7]; MOLT4, BrUra 0.5 mM, with 50 μM dUrd): 8% | % Growth Inhibition ([7]; MOLT4, BrUra 0.5 mM, without dUrd): 6% | % Growth Inhibition ([7]; MOLT4, BrUra 1.5 mM, with 50 μM dUrd): 25% | % Growth Inhibition ([7]; MOLT4, BrUra 1.5 mM, without dUrd): 26% | % Growth Inhibition ([7]; MOLT4, BrUra 4.5 mM, with 50 μM dUrd): 85% | % Growth Inhibition ([7]; MOLT4, BrUra 4.5 mM, without dUrd): 66% | % Growth Inhibition ([8]; K562, BrUra 0.5 mM, with 50 μM dUrd): −6% | % Growth Inhibition ([8]; K562, BrUra 0.5 mM, without dUrd): −7% | % Growth Inhibition ([8]; K562, BrUra 1.5 mM, with 50 μM dUrd): 28% | % Growth Inhibition ([8]; K562, BrUra 1.5 mM, without dUrd): 13% | % Growth Inhibition ([8]; K562, BrUra 4.5 mM, with 50 μM dUrd): 77% | % Growth Inhibition ([8]; K562, BrUra 4.5 mM, without dUrd): 57% | BrdUrd found in DNA of the tumors, replacing dThd bases [9]: 0.15%

OC[C@H]1O[C@@H](n2cnc3c(O)ncnc32)C[C@@H]1O [dIno, deoxyinosine]
enhancement of BrUra trapping in DNA [10]: 6 fold

O=c1ccn([C@H]2C[C@H](O)[C@@H](CO)O2)c(=O)[nH]1 [dUrd]
enhancement of BrUra trapping in DNA [10]: 24 fold

C#Cc1c[nH]c(=O)[nH]c1=O [eniluracil]
increase of incorporation of radioactivity into DNA from [3H]-BrUra [11]: five-fold
